{"source": "ChEMBL document CHEMBL4251557", "about": "(Eur J Med Chem, 2017)", "target": "Neuraminidase (Influenza A virus (A/Puerto Rico/8/1934(H1N1)), UniProt P03468, H274Y)", "set-up": "species or system Influenza A virus (A/California/04/2009(H1N1))", "note": "pIC50: −log10 of the molar value."}
{"smiles": "CCC(CC)O[C@@H]1C=C(C(=O)O)C[C@H](NC(C)=O)[C@H]1NC(C)=O", "values": [{"measurement": "pIC50", "result": 5.86}]}
